The text below walks through data of patent US20190365741A1, “COMBINATIONS OF THE CDK4/6 INHIBITOR LEE011 AND THE MEK1/2 INHIBITOR TRAMETINIB, OPTIONALLY FURTHER COMPRISING THE PI3K INHIBITOR BYL719 TO TREAT CANCER” (Novartis AG, priority 2015, published 2019).

Entries after “also recorded” stand apart in the source; their conditions may differ.

Common to all, as to type: cell-based
Assay [1] has as its system 15 colorectal cancer cell lines. Description: Cell proliferation, summary over the cell line panel. The conditions noted are these: single agent, across the cell lines in which growth was inhibited. As for the experimental part:
(§1) The compounds were dissolved in 100% DMSO (Sigma, Catalog number D2650) at concentrations of 20 mM and stored at −20° C. until use.
(§2) Colorectal cancer cell lines used for this study were obtained, cultured and processed from commercial vendors ATCC, CellBank Australia, DMSZ, ECACC, and HSRRB (Table 1). All cell line media were supplemented with 10% FBS (HyClone, Catalog number SH30071.03).
(§3) The debris counts were subtracted from raw nuclei counts.
The compound's effect on cell proliferation was calculated from the cell counts of the treatments relative to the cell counts of the negative control (DMSO), in FIG. 1 and FIG. 3 denoted as ‘Normalized cell count’ (=‘xnorm’) on the y-axis. […] The model input were inhibition values per drug dose: […]
(§4) (Boston Bioproducts, Catalog number BM-220).

The subject of a further assay is SW837. Description: Cell proliferation (cell count by microscopy), single agents and combinations. The conditions noted are these: Homo sapiens; SW837, 72 h, concentration giving 50% of cell counts relative to DMSO. The protocol:
as §1, §2
(§5) Cell lines were cultured in 37° C. and 5% CO2 incubator and expanded in T-75 flasks. In all cases cells were thawed from frozen stocks, expanded through≥1 passage using 1:3 dilutions, counted and assessed for viability using a ViCell counter (Beckman-Coulter) prior to plating. […] All cell lines were determined to be free of mycoplasma contamination as determined by a PCR detection methodology performed at Idexx Radil (Columbia, Mo., USA) and correctly identified by detection of a panel of SNPs.
as §3
(§6) The compound's effect on cell proliferation was calculated from the cell counts of the treatments relative to the cell counts of the negative control (DMSO), in FIG. 1 and FIG. 3 denoted as ‘Normalized cell count’ (=‘xnorm’) on the y-axis. […] The model input were inhibition values per drug dose:
(§7) I=1−xnorm • I: inhibition • xnorm: normalized cell count (median of three replicates)
(§8) To favor combination effects at high inhibition the residuals were weighted with the observed inhibition at the same dose point. The overall combination score C of a drug combination is the sum of the weighted residuals over all concentrations:
(§9) C=ΣCone (Idata*(Idata−Imodel)) • Idata: measured inhibition Imodel: inhibition according to HSA null hypothesis
(§10) Robust combination z-scores (zC) were calculated as the ratio of the treatments' combination scores C and the median absolute deviation (mad) of non-interacting combinations:
(§11) zC=C/mad(Czero) • Czero: combination scores of non-interacting combinations zC is an indicator for the strength of the combination with:
(§12) In order to assess the effect of the triple combination all individual compounds, all three pair wise combinations, and the triple combination were tested in the same experiment.
as §4

Another assay has as its system COLO-320. The description is as above. The conditions noted are these: Homo sapiens; COLO-320, 72 h, concentration giving 50% of cell counts relative to DMSO. The protocol:
as §1, §2, §5, §3, §6, §7, §8, §9, §10, §11, §12, §4

For the next assay, the system named is NCI-H508. Described as above. The conditions noted are these: Homo sapiens; NCI-H508, 72 h, concentration giving 50% of cell counts relative to DMSO. The protocol: as §1, §2, §5, §3, §6, §7, §8, §9, §10, §11, §12, §4
In another assay the test system is LIM2551. The description is as above. The conditions noted are these: LIM2551, 72 h, concentration giving 50% of cell counts relative to DMSO. The protocol: as §1, §2, §5, §3, §6, §7, §8, §9, §10, §11, §12, §4
A further assay deals with LS-180. Described as above. The settings on record: Homo sapiens, LS180; LS-180, 72 h, concentration giving 50% of cell counts relative to DMSO. As for the experimental part: as §1, §2, §5, §3, §6, §7, §8, §9, §10, §11, §12, §4
The test system of the next assay is OUMS-23. The assay is described as above. The settings on record: OUMS-23, 72 h, concentration giving 50% of cell counts relative to DMSO. As for the experimental part: as §1, §2, §5, §3, §6, §7, §8, §9, §10, §11, §12, §4
The subject of another assay is HCT-116. Described as above. The settings on record: Homo sapiens; HCT-116, 72 h, concentration giving 50% of cell counts relative to DMSO. The protocol:
as §1, §2, §5, §3, §6, §7, §8, §9, §10, §11, §12, §4

For the next assay, the system named is GP2d. The description is as above. The settings on record: 72 h, concentration giving 50% of cell counts relative to DMSO. As for the experimental part: as §1, §2, §5, §3, §6, §7, §8, §9, §10, §11, §12, §4
In another assay the test system is LS411N. The assay is described as above. The settings on record: Homo sapiens, LS-411N, 72 h, concentration giving 50% of cell counts relative to DMSO. The protocol:
as §1, §2, §5, §3, §6, §7, §8, §9, §10, §11, §12, §4

For the next assay, the system named is HT-29. Described as above. The conditions noted are these: Homo sapiens; HT-29, 72 h, concentration giving 50% of cell counts relative to DMSO. The protocol: as §1, §2, §5, §3, §6, §7, §8, §9, §10, §11, §12, §4
The subject of a further assay is RKO. Described as above. The settings on record: Homo sapiens, 72 h, concentration giving 50% of cell counts relative to DMSO. The protocol: as §1, §2, §5, §3, §6, §7, §8, §9, §10, §11, §12, §4
The test system of another assay is LoVo. The description is as above. The settings on record: Homo sapiens, 96 h, concentration giving 50% of cell counts relative to DMSO. As for the experimental part: as §1, §2, §5, §3, §6, §7, §8, §9, §10, §11, §12, §4
The next assay concerns SW480. The assay is described as above. The settings on record: Homo sapiens; SW480, 72 h, concentration giving 50% of cell counts relative to DMSO. The protocol:
as §1, §2, §5, §3, §6, §7, §8, §9, §10, §11, §12, §4

The test system of the next assay is COLO-205. The description is as above. The settings on record: Homo sapiens; COLO-205, 72 h, concentration giving 50% of cell counts relative to DMSO. As for the experimental part:
as §1, §2, §5, §3, §6, §7, §8, §9, §10, §11, §12, §4

The next assay deals with DLD-1. The assay is described as above. The settings on record: Homo sapiens; DLD-1, 72 h, concentration giving 50% of cell counts relative to DMSO. As for the experimental part:
as §1, §2, §5, §3, §6, §7, §8, §9, §10, §11, §12, §4

As usually defined, the IC50 is the concentration that inhibits the measured activity by half. `Cc1nc(NC(=O)N2CCC[C@H]2C(N)=O)sc1-c1ccnc(C(C)(C)C(F)(F)F)c1` [BYL719, (S)-Pyrrolidine-1,2-dicarboxylic acid 2-amide 1-({4-methyl-5-[2-(2,2,2-trifluoro-1,1-dimethyl-ethyl)-pyridin-4-yl]-thiazol-2-yl}-amide)]: the “IC50 values, magnitude in words” value in [1] is “mostly micromolar”. Further, the IC50 with SW837 was more than 10000 nM; with COLO-320, 8300 nM; in the assay with NCI-H508, 500 nM; in the assay on LIM2551, 2300 nM; in the assay with LS-180 it was more than 10000 nM; in the assay with OUMS-23, more than 10000 nM. The IC50 was 9800 nM with HCT-116; 500 nM in the assay with GP2d; more than 10000 nM in the assay with LS411N; 2700 nM with HT-29; 3900 nM with RKO; more than 10000 nM with LoVo. For the same compound, the IC50 in the assay on SW480, in the assay with COLO-205 and in the assay on DLD-1 was more than 10000 nM throughout.
With `CN(C)C(=O)c1cc2cnc(Nc3ccc(N4CCNCC4)cn3)nc2n1C1CCCC1` [LEE011, 7-Cyclopentyl-2-(5-piperazin-1-yl-pyridin-2-ylamino)-7H-pyrrolo[2,3-d]pyrimidine-6-carboxylic acid dimethylamide], the “IC50 values, magnitude in words” value in assay [1] is “mostly micromolar; also recorded: sub-micromolar to micromolar”. For the same compound, the IC50 was more than 10000 nM in the assay with SW837; 2800 nM in the assay on COLO-320; 700 nM with NCI-H508; 1300 nM in the assay on LIM2551; 1800 nM in the assay on LS-180; more than 10000 nM in the assay with OUMS-23. The IC50 worked out at 4500 nM in the assay on HCT-116; 4500 nM in the assay with GP2d; 2100 nM with LS411N; 800 nM with HT-29; 1500 nM in the assay on RKO; 800 nM in the assay with LoVo. Besides, the IC50 with SW480 turned out to be 1600 nM; in the assay with COLO-205, 1100 nM; in the assay with DLD-1, 4100 nM.
For the compound `CC(=O)Nc1cccc(-n2c(=O)n(C3CC3)c(=O)c3c(Nc4ccc(I)cc4F)n(C)c(=O)c(C)c32)c1` [Trametinib, N-{3-[3-cyclopropyl-5-(2-fluoro-4-iodo-phenylamino)6,8-dimethyl-2,4,7-trioxo-3,4,6,7-tetrahydro-2H-pyrido[4,3-d]pyrimidin-1-yl]phenyl}acetamide], in assay [1], the “IC50 values, magnitude in words” value is “nanomolar to sub-micromolar”. In addition, the IC50 in the assay on SW837 was 51 nM; in the assay with COLO-320, more than 300 nM; with NCI-H508 it was 7 nM; in the assay on LIM2551, 5 nM; in the assay with LS-180, 18 nM; with OUMS-23, more than 300 nM. Further, the IC50 is 38 nM with HCT-116; more than 300 nM in the assay with GP2d; 7 nM with LS411N; 4 nM in the assay with HT-29; 21 nM in the assay on RKO; 7 nM in the assay with LoVo. Further, the IC50 with SW480 is 55 nM; in the assay on COLO-205, 4 nM; with DLD-1, 153 nM.
